Data reported in publication PMC8767159, “Multiparameter Optimization of Trypanocidal Cruzain Inhibitors With In Vivo Activity and Favorable Pharmacokinetics” (Frontiers in Pharmacology, 2022).
Read-outs that look alike come from different tables or passages of the source.

Key:
[1] = Fraction unbound by equilibrium dialysis; type: in vitro ADME; details: pH 7.4
Summary of the method: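 Test compounds at 1, 2, 20, 200, 2,000 and 5,000 nM in plasma, microsome suspension or buffer with 10% FCS, dialysed against 50 mM potassium phosphate pH 7.4 across a 12–14 kDa membrane, 37°C, 150 rpm, 4 h. Both sides quantified by LC-MS/MS against a standard curve; triplicates.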

[2] = Experimental distribution coefficient (eLogD) by LC retention time; type: physicochemical; details: for chromatographic logD: C18 column (LC retention time)
Procedure: For the eLogD assays ([Waring, 2010]), each compound (5 μl) from a 5 mM stock solution was diluted in 245 μl of a solution containing buffers A (5% MeOH, 10 mM ammonium acetate, pH 7.4) and B (100% MeOH, pH 7.4) (50:50). Nine control compounds with known eLogD and column retention times (acyclovir, atenolol, antipyrine, fluconazole, metoprolol, carbamazepine, ketoconazole, tolnaftate, and amiodarone; eLogD values ranging from −1.86 to 6.1) were subjected to LC-MS/MS in triplicate before and after the analysis of the test compounds. Retention times were recorded for each control and test compound in a C18 column. The retention time of each control compound was plotted against the respective eLogD values described in the literature ([Lombardo et al., 2002]; [Lombardo et al., 2004]; [Alelyunas et al., 2010]). The resulting linear equation (y = mx + b) was used to calculate the eLogD values of the test compounds, in which x is the retention time in minutes and y is the eLogD value.

[3] = In vitro metabolic stability in human liver microsomes; type: in vitro ADME; details: for CLint scaled at 5 µM: human, liver microsomes
Summary of the method: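 Compounds incubated at 37°C with mouse or human liver microsomes (0.25 mg/ml) in potassium phosphate buffer with NADPH; samples quenched in ACN/MeOH at 0, 5, 10, 15, 20 and 30 min. Parent remaining by LC-MS/MS relative to 0 min; T½ = ln(2)/k, CLint = k*1000/0.25 (μL/min/mg).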

[4] = Table S5, CLint/fu, read-out: CLint_u (L/h/kg) Human (converted)
[5] = Table S5, read-out: CLint (L/h/kg) Human (converted)
[6] = Table S6, fraction unbound used to correct plasma clearance
[7] = Table 5, fraction unbound used to correct CLint
[8] = Table 6, fraction unbound used to correct plasma clearance
[9] = Table 5, CLint/fu, read-out: CLint_u (L/h/kg) human (converted)
[10] = Table 5, read-out: CLint (L/h/kg) human (converted)

Work on `O=C(COc1ccccc1)NCCc1nc2ccccc2n1CCOc1ccccc1Br` [Compound 19] yielded a fraction unbound at 4 h, 1 µM ([1]; Table S5, fraction unbound) of 0.12, a chromatographic logD ([2]; pH 7.4, Table S5) of 4.5 and a CLint scaled at 5 µM [3, 4] of 949 L/h/kg. It also gave a CLint scaled at 5 µM [3, 5] of 112 L/h/kg.

In the case of `O=C(COc1ccccc1)NCCc1nc2ccccc2[nH]1` [Compound 1], the fraction unbound at 4 h, 1 µM ([1]; Table S5, fraction unbound) is reported as 1, the fraction unbound at 4 h, 1 µM [1, 6] is reported as 0.23 and the chromatographic logD ([2]; pH 7.4, Table 3, pH 7.4) is reported as 2.9. It also gave an eLogD ([2]; Table S5) of 2.90, a CLint scaled at 5 µM [3, 4] of less than 1.5 L/h/kg and a CLint scaled at 5 µM [3, 5] of less than 1.5 L/h/kg.

`Cc1ccccc1OCC(=O)NCCc1nc2ccccc2[nH]1` [Compound 17] gave a fraction unbound at 4 h, 1 µM [1, 7] of 0.8, a fraction unbound at 4 h, 1 µM [1, 8] of 0.06 and a chromatographic logD ([2]; pH 7.4, Table 5) of 3.6. It also gave a CLint scaled at 5 µM [3, 9] of 31.2 L/h/kg and a CLint scaled at 5 µM [3, 10] of 23.9 L/h/kg.

Compound `O=C(COc1ccccc1Br)NCCc1nc2ccccc2n1CCOc1ccccc1Br` [Compound 23] has a fraction unbound at 4 h, 1 µM ([1]; Table S5, fraction unbound) of 0.04, a chromatographic logD ([2]; pH 7.4, Table S5) of 4.69 and a CLint scaled at 5 µM [3, 4] of 3370 L/h/kg. The CLint scaled at 5 µM [3, 5] was 136 L/h/kg.

For `N#Cc1ccccc1OCC(=O)NCCc1nc2ccccc2[nH]1` [Compound 31], the fraction unbound at 4 h, 1 µM [1, 7] was 0.9, the fraction unbound at 4 h, 1 µM [1, 8] was 0.15 and the chromatographic logD ([2]; pH 7.4, Table 5) was 2.6. For the same compound, the CLint scaled at 5 µM [3, 9] was 6.6 L/h/kg and the CLint scaled at 5 µM [3, 10] was 5.6 L/h/kg.

For `O=C(COc1ccc2cc(O)ccc2c1)NCCc1nc2ccccc2[nH]1` [Compound 10], the fraction unbound at 4 h, 1 µM ([1]; Table S5, fraction unbound) was 0.82, the fraction unbound at 4 h, 1 µM [1, 6] was 0.34 and the chromatographic logD ([2]; pH 7.4, Table 3, pH 7.4) was 3.17. For the same compound, the eLogD ([2]; Table S5) was 3.17, the CLint scaled at 5 µM [3, 4] was 8.15 L/h/kg and the CLint scaled at 5 µM [3, 5] was 6.66 L/h/kg.

With `CC(=O)Nc1cccc(OCC(=O)NCCc2nc3ccccc3[nH]2)c1` [Compound 3] the fraction unbound at 4 h, 1 µM ([1]; Table S5, fraction unbound) was 1, the fraction unbound at 4 h, 1 µM [1, 6] was 0.16 and the chromatographic logD ([2]; pH 7.4, Table 3, pH 7.4) was 2.26. For the same compound, the eLogD ([2]; Table S5) was 2.26, the “CLint_u (L/h/kg) Human” value ([3]; Table S5, CLint/fu) was 6.90 L/h/kg and the CLint scaled at 5 µM [3, 4] was 6.9 L/h/kg. It also gave a CLint scaled at 5 µM [3, 5] of 6.9 L/h/kg.

Compound `O=C(COc1ccccc1)NCCc1nc2ccccc2n1Cc1ccccc1` [Compound 26] has a fraction unbound at 4 h, 1 µM ([1]; Table S5, fraction unbound) of 0.61, a chromatographic logD ([2]; pH 7.4, Table 3, pH 7.4) of 4.06 and an eLogD ([2]; Table S5) of 4.06. For the same compound, the CLint scaled at 5 µM [3, 4] was 196 L/h/kg and the CLint scaled at 5 µM [3, 5] was 120 L/h/kg.

In the case of `O=C(COc1ccccc1)NCCc1nc2ccccc2n1CCCOc1ccccc1` [Compound 24], the fraction unbound at 4 h, 1 µM ([1]; Table S5, fraction unbound) is reported as 0.27, the chromatographic logD ([2]; pH 7.4, Table 3, pH 7.4) is reported as 4.45 and the eLogD ([2]; Table S5) is reported as 4.45. The CLint scaled at 5 µM [3, 4] was 524 L/h/kg and the CLint scaled at 5 µM [3, 5] was 142 L/h/kg.

`O=C(COc1ccc(Br)cc1)NCCc1nc2ccccc2[nH]1` [Compound 33] gave a fraction unbound at 4 h, 1 µM [1, 7] of 0.8, a fraction unbound at 4 h, 1 µM [1, 8] of 0.16 and a chromatographic logD ([2]; pH 7.4, Table 5) of 2.8. For the same compound, the CLint scaled at 5 µM [3, 9] was 12.5 L/h/kg and the CLint scaled at 5 µM [3, 10] was 10.4 L/h/kg.

With `O=C(COc1ccccc1)NCCc1nc2ccccc2n1CCOc1ccccc1` [Compound 20] the fraction unbound at 4 h, 1 µM ([1]; Table S5, fraction unbound) was 0.41, the chromatographic logD ([2]; pH 7.4, Table 3, pH 7.4) was 4.24 and the eLogD ([2]; Table S5) was 4.24. For the same compound, the CLint scaled at 5 µM [3, 4] was 301 L/h/kg and the CLint scaled at 5 µM [3, 5] was 123 L/h/kg.

With `O=C(COc1cccc(N2C(=O)CCC2=O)c1)NCCc1nc2ccccc2[nH]1` [Compound 6] the fraction unbound at 4 h, 1 µM ([1]; Table S5, fraction unbound) was 1, the chromatographic logD ([2]; pH 7.4, Table S5) was 1.8 and the “CLint_u (L/h/kg) Human” value ([3]; Table S5, CLint/fu) was 3.54 L/h/kg. For the same compound, the CLint scaled at 5 µM [3, 4] was 3.54 L/h/kg and the CLint scaled at 5 µM [3, 5] was 3.54 L/h/kg.

Compound `O=C(COc1ccc2ccccc2c1)NCCc1nc2ccccc2[nH]1` [Compound 35] has a fraction unbound at 4 h, 1 µM [1, 7] of 0.5, a fraction unbound at 4 h, 1 µM [1, 8] of 0.02 and a chromatographic logD ([2]; pH 7.4, Table 5) of 3.9. For the same compound, the CLint scaled at 5 µM [3, 9] was 43.9 L/h/kg and the CLint scaled at 5 µM [3, 10] was 21.1 L/h/kg.

`O=C(Cn1ccnc1[N+](=O)[O-])NCc1ccccc1` [BZ, benznidazole, reference compound] showed a fraction unbound at 4 h, 1 µM [1, 7] of 1, a fraction unbound at 4 h, 1 µM [1, 8] of 0.99 and a chromatographic logD ([2]; pH 7.4, Table 3, pH 7.4) of 0.84. The chromatographic logD ([2]; pH 7.4, Table 5) was 0.8, the eLogD ([2]; Table S5) was 0.84 and the CLint scaled at 5 µM [3, 9] was 1.5 L/h/kg. It also gave a CLint scaled at 5 µM [3, 10] of 1.5 L/h/kg, a CLint scaled at 5 µM [3, 4] of 1.5 L/h/kg and a CLint scaled at 5 µM [3, 5] of 1.5 L/h/kg.

For `Nc1cccc(OCC(=O)NCCc2nc3ccccc3[nH]2)c1` [Compound 9], the fraction unbound at 4 h, 1 µM ([1]; Table S5, fraction unbound) was 0.99, the chromatographic logD ([2]; pH 7.4, Table 3, pH 7.4) was 1.88 and the eLogD ([2]; Table S5) was 1.88. The CLint scaled at 5 µM [3, 4] was 11.1 L/h/kg and the CLint scaled at 5 µM [3, 5] was 11 L/h/kg.

Compound `C=CCCn1c(CCNC(=O)COc2ccccc2Cl)nc2ccccc21` [Compound 38] has a fraction unbound at 4 h, 1 µM [1, 7] of 0.5, a fraction unbound at 4 h, 1 µM [1, 8] of 0.01 and a chromatographic logD ([2]; pH 7.4, Table 5) of 4.1. For the same compound, the CLint scaled at 5 µM [3, 9] was 501 L/h/kg and the CLint scaled at 5 µM [3, 10] was 230 L/h/kg.

Compound `Cn1c(CCNC(=O)COc2ccccc2)nc2ccccc21` [Compound 25] has a fraction unbound at 4 h, 1 µM ([1]; Table S5, fraction unbound) of 0.99, a chromatographic logD ([2]; pH 7.4, Table 3, pH 7.4) of 2.93 and an eLogD ([2]; Table S5) of 2.93. It also gave a CLint scaled at 5 µM [3, 4] of 4.61 L/h/kg and a CLint scaled at 5 µM [3, 5] of 4.57 L/h/kg.

Work on `O=C(COc1ccc2ccc(O)cc2c1)NCCc1nc2ccccc2[nH]1` [Compound 11] yielded a fraction unbound at 4 h, 1 µM ([1]; Table S5, fraction unbound) of 0.67, a fraction unbound at 4 h, 1 µM [1, 6] of 0.03 and an eLogD ([2]; Table 3, pH 7.4) of 2.26. The eLogD ([2]; Table S5) was 3.37, the CLint scaled at 5 µM [3, 4] was 14.2 L/h/kg and the CLint scaled at 5 µM [3, 5] was 9.48 L/h/kg.

For `O=C(CCc1ccccc1Br)NCCc1nc2ccccc2[nH]1` [Compound 36], the fraction unbound at 4 h, 1 µM [1, 7] was 0.8, the fraction unbound at 4 h, 1 µM [1, 8] was 0.04 and the chromatographic logD ([2]; pH 7.4, Table 5) was 3.8. For the same compound, the CLint scaled at 5 µM [3, 9] was 38.2 L/h/kg and the CLint scaled at 5 µM [3, 10] was 28.8 L/h/kg.
